Experimental data from EP0391077A1, “O56-alkyl derivatives of aglycone and pseudoaglycones of teicoplanin” (GRUPPO LEPETIT S.p.A., priority 1989, dated 1990).
Where a name gives a salt, the structure may show the parent alone.

Experiment: physchem
Format: physicochemical
Details: methylcellosolve:water 4:1, pKMCS
Procedure: The potentiometric determinations reported in the examples are run in Methylcellosolve : water, 4:1 (v/v). An excess of 0.01 N HCl In this solvent mixture was added to the sample and the resulting solution was titrated with 0.01 N NaOH in the same solvent mixture. The pK value obtained under the conditions is reported below as pKMCS, wherein MCS stands for Methylcellosolve.

| pKa | Compound |
| --- | --- |
| 6.4 | COC(=O)C1NC(=O)C2NC(=O)C(NC(=O)C3NC(=O)C4NC(=O)C(Cc5ccc(c(Cl)c5)Oc5cc3cc(c5OCCN3CCCC3)Oc3ccc(cc3Cl)C2O)NC(=O)C(N)c2ccc(O)c(c2)Oc2cc(O)cc4c2)c2ccc(O)c(c2)-c2c(O)cc(O)cc21 (centres unmarked) [Compound 13, O⁵⁶-[2-(1-pyrrolidinyl)-ethyl]deglucoteicoplanin methyl ester dihydrochloride] |
| 6 | COC(=O)C1NC(=O)C2NC(=O)C(NC(=O)C3NC(=O)C4NC(=O)C(Cc5ccc(c(Cl)c5)Oc5cc3cc(c5OC(CCO)C(=O)O)Oc3ccc(cc3Cl)C2O)NC(=O)C(N)c2ccc(O)c(c2)Oc2cc(O)cc4c2)c2ccc(O)c(c2)-c2c(O)cc(O)cc21 (centres unmarked) [Compound 3, O⁵⁶ -(1-carboxy-3-hydroxypropyl)deglucoteicoplanin methyl ester hydrochloride] |
